According to patent publication US5342853A, “Method of using nor-verapamil and nor-gallopamil as anti-arteriosclerotics” (priority 1989, dated 1994):

Key:
[1] = Antiatherogenic action on rabbits: carotid atheromas induced by electrical stimulation plus cholesterol-rich diet, 28 days; type: in vivo, male rabbits; settings: rabbit, in vivo; rabbits, oral part of the daily dose (given with s.c. doses); read-out: Highest tolerated daily dose, oral
Method: (§1) Local atheromas are induced by the method of E. Betz and W. Schlote (Basic Res. Cardiol. 1979, 74, 10-20) by electrical stimulation of the carotid artery while, at the same time, feeding a cholesterol-rich diet (2%). At the end of the test period, the atheromas formed under the anode of the stimulating electrodes are removed and their size is determined histologically. Used as a measure of the size of the atheromas is the maximum number of their cell layers determined microscopically from serial sections. The extent of the antiarteriosclerotic action is established by comparison with untreated control animals. Verapamil and gallopamil are used as comparative substances.

[2] = test system: atheromas (carotid artery); assay: as above; type: in vivo, male rabbits; settings: for Maximum number of cell layers in the atheromas / Maximum number of cell layers in the atheromas, % change: 28 days; for Maximum number of cell layers in the atheromas, % change: vs untreated control; for Action against arteriosclerosis (in words): general statement; for Inhibition of the development of atheromas (in words): compared with verapamil
Method: as §1

[3] = rabbits, highest tolerated daily dose 2 × 0.215 mg/kg s.c. + 4.64 mg/kg oral
[4] = rabbits, daily dose 2 × 1.0 mg/kg s.c. + 21.5 mg/kg oral, verapamil, nor-gallopamil *P < 0.05, nor-verapamil P = 0.682
[5] = rabbits, daily dose 2 × 1.0 mg/kg s.c. + 21.5 mg/kg oral

Compound	MTD at 672 h [1]	Antiatherogenic effect (in words) ([2]; rabbits, at the highest tolerated daily dose)	Maximum number of cell layers in the atheromas [2, 3]	Maximum number of cell layers in the atheromas, % change [2, 3]	Action against arteriosclerosis (in words) [2]	Inhibition of the development of atheromas (in words) ([2]; rabbits)	Maximum number of cell layers in the atheromas [2, 4]	Maximum number of cell layers in the atheromas, % change [2, 5]
COc1ccc(CCN(C)CCCC(C#N)(c2cc(OC)c(OC)c(OC)c2)C(C)C)cc1OC (centres unmarked) [Gallopamil, 5-[N-(3,4-dimethoxyphenethyl)-N-methylamino]-2-(3,4,5-trimethoxyphenyl]-2-isopropyl-valeronitrile]	4.64 mg/kg	no antiatherogenic effect	15 ± 0.99	+7.1%				
COc1ccc(CCNCCCC(C#N)(c2cc(OC)c(OC)c(OC)c2)C(C)C)cc1OC (centres unmarked) [Nor-gallopamil]					very good action against arteriosclerosis	inhibit the development of atheromas to about the same extent as verapamil	12 ± 1.3	-44%
COc1ccc(CCNCCCC(C#N)(c2ccc(OC)c(OC)c2)C(C)C)cc1OC (centres unmarked) [Nor-verapamil, 5-[N-(3,4-dimethoxyphenethyl)-amino]-2-(3,4-dimethoxyphenyl)-2-isopropyl-valeronitrile]					very good action against arteriosclerosis	inhibit the development of atheromas to about the same extent as verapamil	8.1 ± 1.3	-40%
COc1ccc(CCN(C)CCCC(C#N)(c2ccc(OC)c(OC)c2)C(C)C)cc1OC (centres unmarked) [Verapamil, 5-[N-(3,4-dimethoxyphenethyl)-N-methylamino]-2-(3,4-dimethoxyphenyl)-2-isopropyl-valeronitrile]							3.8 ± 0.37	-51%
